Assay [1] addresses BIR3 domain of XIAP. The settings on record: legend of FIG. 13; read-out: K is (Ki) for the BIR3 domain of XIAP; cited from earlier work.
For assay [2], the target named is BIR3 domain of cIAP1. The settings on record: legend of FIG. 13; read-out: K is (Ki) for the BIR3 domain of cIAP1; cited from earlier work.
Assay [3] deals with BIR3 domain of cIAP2. Particulars: legend of FIG. 13; read-out: K is (Ki) for the BIR3 domain of cIAP2; cited from earlier work.
In assay [4] the target is T1, BIR3 domain of XIAP (Homo sapiens, UniProt P98170). As to the kind of experiment: Isothermal titration calorimetry (ITC) against the BIR3 domain of XIAP. Set-up: human BIR3 domain of XIAP fragment (residues 253-347) and an N-terminal His tag; His tag (N); made in house; host or cells: E. coli BL21(DE3) Gold. In kind it is binding. On the technique in general: ITC needs no label: the signal is the heat of the interaction.
T1 sequence (P98170 253-347): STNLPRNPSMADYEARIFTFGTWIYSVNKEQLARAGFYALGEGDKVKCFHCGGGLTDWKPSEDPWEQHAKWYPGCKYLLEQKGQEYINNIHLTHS

In assay [5] the test system is H929 and L363 cells. As to the kind of experiment: MTS assay, LCL161-sensitive multiple myeloma cell lines. In kind it is cell-based, human. Particulars: H929 and L363, 48 hr, 20 μM; result in words. On the procedure: (§1) Cell lines and antibodies. […] (ATCC® TIB-196™), NCI-H929 [H929]
MTS assay. MM.1S, U266, L363, H929, LP1, RPMI cells were seeded on 96-well plates in three replicates at 100 μL/well (2.5×10^5cells/ml) in growing medium and exposed to 20 μM) of different chemical compounds.

Assay [6] has as its system MIA PaCa-2 cells. Nature of the assay: Co-treatment with gemcitabine (GEM) and IAP inhibitors, MIA PaCa-2. The assay is classed as cell-based, human. The settings on record: GEM 24 h, then GEM + 15 μM IAP inhibitor 24 h; result in words. Here is the method:
as §1
(§2) Pancreatic cancer cells co-treatment with gemcitabine (GEM) and IAP inhibitors. Pancreatic cancer cells were plated at 30×10^3 cells per well in 96-well plates. The next day, cells were treated with different concentrations of GEM. After 24-h incubation, media was removed and replenished with the same GEM concentration alone or with 15 μM of IAP inhibitors in serum-free media and cells were further incubated for 24 h.
(§3) Cell proliferation assay was determined using ATPlite 1Step Luminescence Assay System (PerkinElmer) according to the manufacturer's instructions, and luminescence was measured by VICTOR X5 microplate reader (PerkinElmer). Finally, data was plotted, and IC50 values were calculated using Prism GraphPad version 7. […] This experiment was repeated three times, and each concentration was tested in triplicate.

In assay [7] the test system is BxPC3 and PANC-1 cells. Nature of the assay: Co-treatment with gemcitabine (GEM) and IAP inhibitors, BxPC3 and PANC-1. In kind it is cell-based, human. Particulars: GEM 24 h, then GEM + 15 μM IAP inhibitor 24 h; result in words. Here is the method:
as §1, §2, §3

The target in assay [8] is T1, BIR3 domain of XIAP. Nature of the assay: biochemical.
Assay [9] relates to MOLT-4 cells. Nature of the assay: Cell viability / proliferation assay (ATPlite), MOLT-4. The settings on record: 48 hrs; result in words. In kind it is cell-based, human. Here is the method: as §1
Cell proliferation assay. On day one, MOLT-4 cells were collected and resuspended in serum-free OPTI-MEM supplemented with 1% Penicillin-Streptomycin, and they were seeded at 20×10^3 cells per well in 96-well plates. Compounds or DMSO were added to treated or control wells, respectively and every well had 1% of DMSO. Cells were further incubated for 48 h in a cell culture incubator.
as §3
For orientation: ATP-based viability assays read luminescence as a measure of living cells.

For assay [10], the target named is BIR2 domain of XIAP (Homo sapiens, UniProt P98170). Particulars: result in words.
Chain of BIR2 domain of XIAP (P98170 152-236 limits assumed): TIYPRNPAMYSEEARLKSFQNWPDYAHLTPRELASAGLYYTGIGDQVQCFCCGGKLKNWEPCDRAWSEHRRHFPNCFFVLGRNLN
[11] abbreviates: figure legends and table titles.

“Also recorded” adds a separate entry of the source. Where two headings read alike, the source gives them in different places.

As for `CN[C@@H](C)C(=O)N[C@H]1CN(C(=O)CC(C)C)CC[C@H]2CC[C@@H](C(=O)NC(c3ccccc3)c3ccccc3)N2C1=O` [AT-406], the Ki (commonly a dissociation constant, usually derived from enzyme kinetics or from competition with a known ligand) in assay [1] is 66.4 nM; in assay [2], 1.9 nM; in assay [3] it was 5.1 nM. The same compound yielded a ΔH of binding in assay [4] (setting [11]) of -6.5 kcal/mol.
`CN[C@@H](C)C(=O)N[C@@H](Cc1cc(C)c(C(F)(F)F)cc1F)C(=O)N1CCC[C@H]1C(=O)NC1CCc2c(F)cccc21` (some centres unmarked) [Compound 31]: in assay [5], the “activity in LCL161-sensitive MM cell lines” value is given as “approximately equipotent”. Besides, the “effect in combination with gemcitabine, MIA PaCa-2” value in assay [6] is reported as “modest significant additive effect”. In assay [7], the “effect in combination with gemcitabine, BxPC3 and PANC-1 (pancreatic cancer cell lines, FIG. 10E)” value is given as “significantly sensitize; also recorded: able to significantly restore growth inhibition by gemcitabine; also recorded: significant synergism”.
As for `CN[C@@H](C)C(=O)N[C@H](C(=O)N1CCC[C@H]1C(=O)Nc1snnc1-c1ccccc1)C1CCCCC1` [GDC-0152], the values for the Ki in assay [1] and in assay [3] were 28 nM and 43 nM, respectively. Further, the concentration for half-maximal inhibition (IC50) (commonly the concentration that gives 50% inhibition) in [8] (DELFIA IC50 (nM) XI4P-BIR3 2-h, 2-h, Table 10) amounted to 21.4 ± 1.7 nM; in assay [8] (DELFIA IC50 (nM) XI4P-BIR3 6-h pre, 2-h, 6-h pre, Table 10) it was 17.9 nM; in assay [8] (DELFIA IC50 (nM) XIAP-BIR3, 2-h incubation, Table 7), 21.4 ± 1.7 nM; in assay [8] (DELFIA IC50 (nM) XIAP-BIR3, 2-h incubation, Table 8), 21.4 ± 1.7 nM; in [8] (DELFIA IC50 (nM) XIAP-BIR3, 2-h incubation, Table 9), 21.4 ± 1.7 nM; in [8] (IC50 (nM) by DELFIA assay XIAP, Table 6), 22.1 nM. The compound also registered an IC50 in assay [8] (IC50, Bir3 domain of XIAP, Example 1, displacing a biotin-labeled AVPF reference peptide) of around 25 nM. Besides, the Kd (usually the free concentration of one partner at which half of the binding sites on the other are occupied at equilibrium, for simple one-to-one binding) in assay [4] (Example 1, read-out: Kd) is 95 nM; in assay [4] (Table 6, read-out: Kd (nM) by ITC XIAP) it was 94.7 nM. The “ΔH (kcal/mol) XIAP” value in [4] (Table 6, measured from a full curve titration) was -5.16 kcal/mol. In assay [4] (figure legend FIG. 6A), this compound yielded a ΔG of -9.58 kcal/mol. The ΔH of binding was -5.16 kcal/mol in [4] (setting [11]); -5.2 kcal/mol in assay [4] (figure legends and table titles, listed as GDC-0156); around -5.2 kcal/mol in [4] (figure legends and table titles, listed as GDG-0152). Moreover, the “−TΔS” value in [4] (setting [11]) is -4.44 kcal/mol.
In the case of `CN[C@@H](C)C(=O)N[C@H](C(=O)N1CCC[C@H]1c1nc(C(=O)c2ccc(F)cc2)cs1)C1CCCCC1` [LCL161], the “activity on cell viability of MOLT-4” value in assay [9] is “not particularly active; also recorded: less potent than both compound 34 and compound 31”. For the same compound, the “activity in LCL161-sensitive MM cell lines” value in [5] was “particularly active”. Besides, in [7], the “effect in combination with gemcitabine, BxPC3 and PANC-1 (pancreatic cancer cell lines, FIG. 10E)” value is listed as “able to significantly restore growth inhibition by gemcitabine”. For the same compound, the “affinity for the BIR2 domain of XIAP” value in [10] is “only modest affinity”. This compound also returned a ΔH of binding in assay [4] (setting [11]) of -5.2 kcal/mol.

(Values after US11590197B2, “Agents targeting inhibitor of apoptosis proteins” (The Regents of the University of California, priority 2017, dated 2023).)
